Values quoted from earlier work as cited in patent US8981059B2, “Platelet aggregation inducing substance” (JNC Corporation, priority 2006, dated 2015).

Test system: platelets
Conditions: as disclosed in the non-patent documents

Substance: -(Gly-Pro-Hyp)10- [polypeptide -(Gly-Pro-Hyp)10-]
- platelet aggregation inducing activity: low
